In patent publication US20240207265A1, “TREATMENT OF CNS DISEASES WITH sGC STIMULATORS” (Tisento Therapeutics Inc., priority 2021, published 2024):
pEC50: −log10 of the molar value.

Legend:
sGC enzyme = assay: cGMP GloSensor cell-based assay, 384-well format (HEK293); parameters: species or system human; conditions: HEK293 GloSensor 40F cGMP cells, 10 μM DETA-NONOate, geometrical mean; read-out: Glo EC50
Text: Human embryonic kidney cells (HEK293) cells expressing GloSensor™ 40F cGMP (Part No: CS182801, Promega) were used to evaluate the activity of test compounds. The luminescent biosensors (engineered luciferase) that were incorporated into these cells detect cGMP formed by the compounds stimulating the sGC enzyme and emit luminescence.
cGMP GloSensor cells were maintained in Dulbecco's Modification of Eagle's Medium (DMEM) supplemented with fetal bovine serum (FBS, 10% final) and hygromycine (200 ug/ml). The day before assay, cells were plated in DMEM with 10% FBS in a 50 μL volume at a density of 1.5×10^4 cells/well in a poly-D-lysine coated 384-well flat white-bottom plate (Corning Cat No 35661). Cells were incubated overnight at 37° C. in a humidified chamber with 5% CO2. The next day, medium was removed and cells were replaced with 40 ul/well of GloSensor™, 2 mM (Promega Cat No E1291). Cells were treated for 90 minutes at 25° C. to allow the substrate to equilibrate in the cells. Test compounds and Diethylenetriamine NONOate (DETA-NONOate) was diluted to 3 mM (20×) in serum-free CO2 independent medium and serially diluted at 4× dilutions to create 5× dose curve from which 10 ul was added to the wells (x μM concentration for test compound solution and 10 μM concentration for DETA-NONOate solution; wherein x is one of the following final concentrations: 30 μM, 7.5 μM, 1.9 μM, 469 nM, 117 nM, 29.3 nM, 7.3 nM, 1.83 nM, 0.46 nM, 0.11 nM, 0.03 nM) For the kinetics studies, luminescense was measured right away for 0.2 sec per well with Envision (Perkin Elmer). For endpoint SAR screening, data were collected after 55 min incubation at room temperature.
(§1) Concentration response data were analyzed using a 4-parameter fit (log (agonist) vs. response-variable slope). The EC50 was interpolated from the curve fit and is defined as the concentration at which the compound elicits 50% of its maximal response. When the experiment was carried out multiple times for a given compound, the geometrical mean of all experiments is reported.

sGC = assay: cGMP neuronal cell-based assay (rat primary neurons); conditions: rat primary hippocampal neurons, DETA-NO 10 μM or 30 μM, cGMP by LC-MS/MS; read-out: sGC Neuron EC50
Description: Rat primary neurons were isolated from fetuses of 18-day pregnant Sprague-Dawley females. The fetuses were collected in Hanks' balanced salt solution (HBSS) and brains were rapidly removed. The cerebral hippocampi were isolated and mechanically fragmented. Further tissue digestion was performed with 0.25% (wt/vol) trypsin solution in HBSS without Ca2+ and Mg2+ for 15 min at 37° C. After trypsination, cells were washed and resuspended in neurobasal medium supplemented with 0.5 mM L-glutamine, 12.5 uM glutamic acid, 2% B-27 and 100 U/mL penicillin, and 100 μg/mL streptomycin. Cells were plated at a density of 26×10^3 or 3×10^4 or 4×10^4 cells/well in a poly-D-lysine coated 384-well flat clear-bottom plate (Corning Cat No 354662). Cells were incubated 6-7 days at 37° C. in a humidified chamber with 5% CO2. Media was removed and cells were washed 1× with HBSS containing Ca2+ and Mg2+, and replaced with 40 uL HBSS containing 0.5 mM IBMX, and incubated for 15 minutes at 37° C. 10 uL of a 5× stock of test compounds with diethylenetriamine NONOate (DETA-NO) was added. Final concentration of DETA-NO was either 10 μM or 30 μM. Cells were incubated for 20 min at 37° C. Medium was removed, 50 uL of ice-cold 10% acetic acid was added, and incubated for 60 minutes at 4° C. Following centrifugation at 4° C. for 5 minutes at 1000×g to pellet cell debris, the supernatant was aspirated to a clean plate and the samples were analyzed for cGMP content. cGMP concentrations were determined from each sample using LC-MS/MS.
as §1

[1] = Rat cerebrospinal fluid (CSF) pharmacokinetics; type: in vivo; conditions: male, Sprague-Dawley, rat CSF/unbound plasma
Description: PK in rats was determined following oral dosing. For the oral (PO) experiments, a group of 6 male Sprague-Dawley rats with an indwelling catheter placed in the cisterna magna were used. The PO group was dosed with 3.0, or 10 mg/kg of a compound formulated as a solution in PEG400 or suspension in 0.5% Tween 80 and 0.5% Methylcellulose in water. PO doses were administered by oral gavage and delivered to the stomach using a syringe and gavage tube. Following oral dosage administration, the gavage tube was flushed with approximately 0.5 mL of water to ensure complete delivery of the full dose.
Plasma samples were collected as follows: samples of CSF and blood were collected at 1 hour, 2, and optionally at 4 hours post-dosing. CSF samples (0.05 mL) were collected through the intracisternal catheter. Blood samples (0.25 mL) were collected through tail nick sampling. These samples were kept on ice until processed for plasma. Blood samples were centrifuged at 3200 rpm for 5 minutes at approximately 5° C. within 1 hour of collection. Plasma was directly transferred to individual Eppendorf tubes (0.125 mL). Plug caps were placed on the tubes and the tubes frozen at approximately −70° C. and stored until analysis. Plasma and CSF was collected and analyzed for the presence of a compound.
The compound in question and the internal standard were extracted from plasma by precipitation and from CSF by either precipitation or dilution. Samples were analyzed using liquid chromatography (LC) with tandem mass spectrometric detection (MS/MS) using electrospray ionization. The standard curve ranged from 0.1 to 1000 ng/mL. Results of the compounds described herein in this assay are illustrated in Table G below (for a 10 mg/kg dose and/or 3 mg/kg of the compound). Compound concentrations from several animals were combined to give the geometrical mean at each specific dosage and timepoint.
Kp,uu is defined as the concentration ratio of unbound drug in CSF to unbound drug in plasma. Unbound drug in plasma (or free plasma concentration) is calculated by multiplying the total plasma concentration by the unbound fraction as determined by plasma protein binding. The CSF concentration is then divided by the free plasma concentration to determine the Kp,uu. (See e.g., Di et al., J. Med. Chem., 56, 2-12 (2013))

pEC50 (sGC enzyme) | pEC50 (sGC) | Kp uu at 1 h ([1]; PO 3 mg/kg) | Kp uu at 2 h ([1]; PO 3 mg/kg) | Kp uu at 4 h ([1]; PO 3 mg/kg) | Kp uu at 1 h ([1]; PO 10 mg/kg) | Kp uu at 2 h ([1]; PO 10 mg/kg) | Kp uu at 4 h ([1]; PO 10 mg/kg) | Structure (SMILES)
6.00 to 7.00 | 6.00 to 7.00 | – | – | – | – | – | – | Oc1nc(-c2cn3ccnc3c(Cc3ccccc3)n2)ncc1F [Compound I-2, 2-(8-Benzylimidazo[1,2-a]pyrazin-6-yl)-5-fluoropyrimidin-4-ol]
6.00 to 7.00 | ≥ 7.00 | ≤ 1 | 1 to 2 | 1 to 2 | – | – | – | Oc1nc(-c2cn3ccnc3c(Cc3cccc(F)c3F)n2)ncc1F [Compound I-4, 2-(8-(2,3-Difluorobenzyl)imidazo[1,2-a]pyrazin-6-yl)-5-fluoropyrimidin-4-ol]
≥ 7.00 | ≥ 7.00 | 2 to 3 | 2 to 3 | 2 to 3 | – | – | – | Oc1nc(-c2cn3c(F)cnc3c(Cc3cc(F)ccc3F)n2)ncc1F [Compound I-5]
≥ 7.00 | ≥ 7.00 | > 3 | > 3 | > 3 | > 3 | > 3 | 2 to 3 | Cc1cc(F)c(Cc2nc(-c3ncc(F)c(O)n3)cn3ccnc23)cc1F [Compound I-14, 5-fluoro-2-(8-(2,5-difluoro-4-methylbenzyl)imidazo[1,2-a]pyrazin-6-yl)pyrimidin-4-ol]
6.00 to 7.00 | 6.00 to 7.00 | – | – | – | – | – | – | Cc1cc(F)c(Cc2nc(-c3nccc(O)n3)cn3ccnc23)cc1F [Compound I-15, 2-(8-(2,5-difluoro-4-methylbenzyl)imidazo[1,2-a]pyrazin-6-yl)pyrimidin-4-ol]
≥ 7.00 | ≥ 7.00 | > 3 | > 3 | > 3 | – | – | – | Oc1nc(-c2cn3ccnc3c(Cc3cc(F)ccc3F)n2)ncc1Cl [Compound I-16, 5-chloro-2-(8-(2,5-difluorobenzyl)imidazo[1,2-a]pyrazin-6-yl)pyrimidin-4-ol]
≥ 7.00 | – | 1 to 2 | 1 to 2 | 1 to 2 | – | – | – | Cc1cc(F)c(Cc2nc(-c3ncc(F)c(O)n3)cn3c(F)cnc23)cc1F [Compound I-18]
6.00 to 7.00 | ≥ 7.00 | – | – | – | – | – | – | Cc1cc(F)c(Cc2nc(-c3ncc(F)c(O)n3)cn3ncnc23)cc1F [Compound I-19, 5-Fluoro-2-(8-(2,5-difluoro-4-methylbenzyl)-[1,2,4]triazolo[1,5-a]pyrazin-6-yl)pyrimidin-4-ol]
≥ 7.00 | ≥ 7.00 | 2 to 3 | 2 to 3 | 2 to 3 | 1 to 2 | 2 to 3 | 2 to 3 | Oc1nc(-c2cn3ccnc3c(Cc3cc(F)ccc3F)n2)ncc1F [Compound I-20, 5-fluoro-2-(8-(2,5-difluorobenzyl)imidazo[1,2-a]pyrazin-6-yl)pyrimidin-4-ol]
6.00 to 7.00 | ≥ 7.00 | – | – | – | – | – | – | Oc1nc(-c2cn3ccnc3c(Cc3ccccc3F)n2)ncc1F [Compound I-21]
6.00 to 7.00 | ≥ 7.00 | – | – | – | – | – | – | Oc1nc(-c2cn3ncnc3c(Cc3ccccc3F)n2)ncc1F [Compound I-23]
